# Data taken from patent publication US6939892B2, “Compositions for treating or preventing malaria and method of treating malaria” (Zaidan Hojin Biseibutsu Kagaku Kenkyu Kai, priority 2000, dated 2005).
# Structures can show the parent of a compound that is named as a salt. Where two headings read alike, the source gives them in different places.
# Legend:
# Plasmodium falciparum = assay: In vitro test of inhibitory activity against proliferation of malarial parasites in human red blood cells; type: cell-based; conditions: for Selective toxicity: ratio of EC50 for the F28-7 cell line to EC50 for the malarial parasite (P. falciparum FCR-3 strain); for Rate (%) of proliferation of malarial parasite: 72 hours
# Method: In this test Example, two strains of Plasmodium falciparum, namely strain FCR-3 (ATCC 30932) and strain Honduras-1 (ATCC 30950) were used as the malarial parasites to be tested, and each malarial strain was incubated separately in vitro as described below. […] The resulting culture medium as supplemented with the human serum was then adjusted to have a hematocrit level (namely, a ratio of the total volume of the red blood cells to the volume of the liquid culture medium comprising the suspended red blood cells) of 5%, and thereafter the culture medium as adjusted was placed in individual wells of 24-well incubation microplates. The culture medium in each well was inoculated with Plasmodium falciparum under test. The initial rate (%) of infection of the red blood cells with the malarial parasite in individual wells was then adjusted to a value of 0.1% at the start of the incubation. Thereafter, there was carried out the incubation of the red blood cells along with the infecting Plasmodium falciparum. This incubation was effected at 36.5° C. in an atmosphere comprising 5.0% oxygen, 5.0% carbon dioxide and 90% nitrogen.
# The culture medium present in each well was daily changed freshly. At the time when the rate (%) of infection of the red blood cells with the malarial parasite increased to reach a value of 4%, the transfer of the incubated cultures to another incubation microplates was conducted. Thus, the cultures of the malarial parasites under test were prepared.
# By the way, the rate (%) of infection of the red blood cells with the malarial parasite as above-mentioned was evaluated by a procedure that comprised removing a sample from the culture of the parasitized red blood cells in each well, preparing thin blood film specimen containing the red blood cells from each sample, staining said thin blood film specimen by means of Giemsa staining or Diff-Qick staining method, counting the number of the stained red blood cells as infected with the malarial parasite per one thin blood film, under a microscope (oil immersion; 1,000×), and calculating the rate (%) of infection of the red blood cells with malarial parasite according to the undermentioned equation: [formula]
# In turn, the abovementioned culture of the parasitized red blood cells as prepared in the above was subjected to a centrifugation to collect the red blood cells which had been infected with the malarial parasite. The infected red blood cells so collected were washed with an PRMI 1640 medium supplemented with the human serum, and then were added with such red blood cells which were not yet infected with the malarial parasite. Thus, there was prepared such a culture of the malarial parasite having infected the red blood cells, in which the initial rate (%) of infection of the red blood cells with the malarial parasite had firstly been adjusted to a value of 0.3%. The hematocrit level of this culture of the malarial parasite so prepared at this time point was 3%.
# On the other hand, the compound to be tested in the present experiments was previously prepared in the form of a solution of each compound dissolved in a sterilized water, dimethylformamide (DMF) or dimethylsulfoxide (DMSO).
# (i) The culture medium to be used for incubation of malarial parasite as above-mentioned was placed in individual wells of a multidish 24-wells. Then, for the treated test groups, each solution of the test compound as previously prepared in the above was added in an amount of 5 to 10 microliters (μl) into each well containing said culture medium therein. Then, the concentration of the test compound as added to the culture medium present in the individual wells of the multidish 24-well microplates was adjusted to different values in the individual wells. The test was carried out in duplicate or triplicate. On the other hand, for the control test groups (untreated), no test compound was added to each well, but instead thereof sterilized water, DMF or DMSO was added thereto in an amount of 10 μl.
# [1] = system: subclone F28-7 cells of FM3A cell line originating from a mouse mammary tumor; assay: Toxicity of test compound against subclone F28-7 cells of FM3A cell line (cell proliferation); type: cell-based; conditions: for EC50: Mus musculus, FM3A; for Rate (%) of proliferation of cells of the F28-7 cell line: 48 hours
# Method: Cells of subclone F28-7 cell line of a mouse mammary tumor, which is a wild type cell line of the FM3A cell line originating from a mouse mammary tumor, were used as the test cells. The culture medium to be used for cultivation of the cells of the subclone F28-7 cell line was prepared by supplementing an ES medium with 2% of a heat-inactivated fetal bovine serum. The cultivation of the subclone F28-7 cell line under test was effected in this serum-supplemented ES medium at 37° C. in air containing 5% CO2.
# After the pre-cultivation was effected, the cell density of cells of the subclone F28-7 cell line which had entered the logarithmic proliferation phase was adjusted to a level of 5×10^4 cells/ml by diluting the culture of the cells with a volume of the fresh culture medium. Thus, there was prepared a cell suspension of cells of the subclone F28-7 cell line as cultured.
# For the solution of the test compound, there was used the same solution as that which was hereinbefore prepared in the test for the determination of the antimalarial activity of the test compound against the proliferation of malarial parasite.
# The culture medium to be used for the cultivation of the subclone F28-7 cell line above mentioned was placed in the individual wells of a multidish 24-wells. Then, for the treated test groups, the solution of the test compound was added in an amount of 5˜10 microliters to the culture medium in each well of the incubation plate so as to adjust a final concentration of the test compound as added to be 1×10^−4 to 1×10^−6 M.
# The test was carried out in duplicate or triplicate. On the other hand, for the control test groups (untreated), no test compound was added to each well, but instead thereof a sterilized water, DMF or DMSO was added to each well in an amount of 10 μl. Then, the cell suspension of cells of the subclone F28-7 cell line as already prepared in the above was dispensed in an amount of 990-995 μl to each well by pipetting. The pipetting was effected carefully and gently, so that the cells as added were evenly suspended in the culture medium in each well. Thereafter, the cells of subclone F28-7 cell line were incubated for 48 hours under the aforesaid cultivating conditions. Then, the number of the cells of the subclone F28-7 cell line was counted by means of a microcell counter (CC-108, Toa Medical Electric Co.) for the cell culture as obtained in the individual wells of both the treated test groups and the control test (untreated) groups.
# The inhibitory activity of the test compound against the proliferation of cells of the subclone F28-7 cell line was subsequently estimated from such value of the rate (%) of the proliferation of cells of the subclone F28-7 cell line which is defined by the undermentioned equation with reference to the counted number of cells of the subclone F28-7 cell line in the cell culture contained in each well and having been incubated in the presence of the test compound added for the treated test group, and with reference to the counted number of cells of the subclone F28-7 cell line having been incubated in the absence of the test compound for the control test group. The toxicity of the test compound was thus evaluated from the value of the rate (%) of proliferation of cells of the subclone F28-7 cell line so estimated. [formula]
# [2] = system: Plasmodium berghei NK65 strain; assay: In vivo test of antimalarial activity against malarial parasite in infected ICR mice; conditions: ICR mice infected with P. berghei NK65, dose of 5 mg/kg, printed 'intravenous injection', once a day on Day 0 and Day 1, blood read on Day 4
# From the text: As mice for this test, there were used ICR mice (male) of 5-weeks old with body weight of 26-31 g (five mice per group). As the source of the malarial infection for this experiment, murine malarial parasite, Plasmodium berghei NK65 strain was used.
# Blood sample was drawn by cardiac puncture from each of the donor ICR mice which had been infected with Plasmodium berghei NK65 strain. […]
# For sake of convenience, a time schedule was so set that the time of inoculating the test mice with the malarial parasite by intravenous injection of the cell suspension of the parasitized red blood cells was Day 0. […] For both of the untreated test group and the treated test group, the rate (%) of infection of the red blood cells with the malarial parasite in each of the mouse blood samples was evaluated. […] The rate (%) of inhibition against the proliferation of the malarial parasite used here indicates such value as calculated by the following equation: [formula] where A means the average rate (%) of infection of the red blood cells with the malarial parasite as effected in the untreated test group, and B means the average rate (%) of infection of the red blood cells with the malarial parasite as effected in the treated test group.
# [3] = Acute toxicity, intraperitoneal injection; type: in vivo; conditions: mouse, in vivo, ip; ICR mice, intraperitoneal administration, 14th day
# Method: (§1) SF2487 substance (Na salt) in the form of a solution dissolved in a physiological saline containing 10% DMSO was administered to ICR mice (5-weeks old, 3 mice per group) in different doses by intraperitoneal injection.
# ICR mice = assay: Acute toxicity, intraperitoneal injection; type: in vivo; conditions: 14th day, 3 mice per group
# Method: as §1
# Solubility in solvents = type: physicochemical
# [4] = read-out: EC50 values, namely molar concentrations of test compound for the 50% inhibition of proliferation, P. falciparum FCR-3 strain, 72 hours incubation
# [5] = read-out: EC50 values, namely molar concentrations of test compound for the 50% inhibition of proliferation, the F28-7 cell line, F28-7 cell line, 48 hours incubation
# [6] = 48 h, read-out: EC50 values, namely molar concentrations of test compound for the 50% inhibition of proliferation, the F28-7 cell line
# [7] = 1 × 10^−7 Molar test compound in culture medium
smiles,measurement,setting,value
"C[C@@H]1CC[C@H]2[C@@H](C)C(=O)O[C@@H]3O[C@@]4(C)CC[C@@H]1[C@]32OO4 [Artemisinin, reference compound]",EC50,Plasmodium falciparum; [4],7.8 nM
same,EC50,[1]; [5],10000 nM
"CCN(CC)CCCC(C)Nc1ccnc2cc(Cl)ccc12 (stereo not drawn) [Chloroquine, reference compound]",EC50,Plasmodium falciparum; [4],18 nM
same,EC50,[1]; [6],32000 nM
"OC(c1cc(C(F)(F)F)nc2c(C(F)(F)F)cccc12)C1CCCCN1 (stereo not drawn) [Mefloquine, reference compound]",Selective toxicity,Plasmodium falciparum,91
same,EC50,Plasmodium falciparum; [4],32 nM
same,EC50,[1]; [5],2900 nM
"CCc1nc(N)nc(N)c1-c1ccc(Cl)cc1 [Pyrimethamine, reference compound]",Selective toxicity,Plasmodium falciparum,120
same,EC50,Plasmodium falciparum; [4],1 nM
same,EC50,[1]; [5],120 nM
"C=C[C@H]1C[N@@]2CC[C@H]1C[C@H]2[C@H](O)c1ccnc2ccc(OC)cc12 [Quinine, reference compound]",Selective toxicity,Plasmodium falciparum,910
same,EC50,Plasmodium falciparum; [4],110 nM
same,EC50,[1]; [5],100000 nM
C=C1OC(O)=C(C(=O)C(OC)C2C(/C=C(\CO)C3CCC(C)C(/C(C)=C/CC4OC(C)(C5CCC(C(O)CC)O5)CC4C)O3)CC(C)C(O)C2CO)C1=O (stereo not drawn) [SF2487 substance Na salt],rate (%) of inhibition against the proliferation of the malarial parasite,[2],80%
same,LD50 at 14 days,[3],≥ 25 mg/kg
same,mortality,ICR mice; 12.5 mg/kg intraperitoneal injection,all three mice survived
same,mortality,ICR mice; 25 mg/kg intraperitoneal injection,one mouse died among three mice
same,Rate (%) of proliferation of malarial parasite,Plasmodium falciparum; [7],0%
same,Rate (%) of proliferation of malarial parasite,Plasmodium falciparum; 1 × 10^−8 Molar test compound in culture medium,10%
same,Rate (%) of proliferation of malarial parasite,Plasmodium falciparum; 1 × 10^−9 Molar test compound in culture medium,60%
same,Rate (%) of proliferation of malarial parasite,Plasmodium falciparum; 1 × 10^−10 Molar test compound in culture medium,100%
same,Rate (%) of proliferation of malarial parasite,Plasmodium falciparum; 3 × 10^−8 Molar test compound in culture medium,5%
same,Rate (%) of proliferation of malarial parasite,Plasmodium falciparum; 3 × 10^−9 Molar test compound in culture medium,40%
same,Rate (%) of proliferation of malarial parasite,Plasmodium falciparum; 3 × 10^−10 Molar test compound in culture medium,100%
same,Rate (%) of proliferation of malarial parasite,Plasmodium falciparum; 7 × 10^−8 Molar test compound in culture medium,0%
same,Rate (%) of proliferation of malarial parasite,Plasmodium falciparum; 7 × 10^−9 Molar test compound in culture medium,25%
same,Rate (%) of proliferation of malarial parasite,Plasmodium falciparum; 7 × 10^−10 Molar test compound in culture medium,85%
same,EC50,"Plasmodium falciparum; Plasmodium falciparum, Erythrocyte, read-out: concentration necessary to inhibit the proliferation of malarial parasite by 50% (EC50)",2 nM
same,Selective toxicity,Plasmodium falciparum,800
same,Rate (%) of proliferation of cells of the F28-7 cell line,[1]; 1 × 10^−5 Molar test compound in culture medium,0%
same,Rate (%) of proliferation of cells of the F28-7 cell line,[1]; 1 × 10^−6 Molar test compound in culture medium,58%
same,Rate (%) of proliferation of cells of the F28-7 cell line,[1]; [7],100%
same,Rate (%) of proliferation of cells of the F28-7 cell line,[1]; 3 + 10^−5 Molar test compound in culture medium,0%
same,Rate (%) of proliferation of cells of the F28-7 cell line,[1]; 3 × 10^−6 Molar test compound in culture medium,45%
same,Rate (%) of proliferation of cells of the F28-7 cell line,[1]; 3 × 10^−7 Molar test compound in culture medium,100%
same,Rate (%) of proliferation of cells of the F28-7 cell line,[1]; 7 × 10^−6 Molar test compound in culture medium,10%
same,Rate (%) of proliferation of cells of the F28-7 cell line,[1]; 7 × 10^−7 Molar test compound in culture medium,70%
same,EC50,[1]; [6],1600 nM
same,EC50,[1]; read-out: concentration necessary to inhibit the proliferation of cells of the F28-7 cell line by 50% (EC50),1600 nM
same,solubility,"Solubility in solvents; in chloroform, ethyl acetate and dimethylsulfoxide",soluble
same,solubility,Solubility in solvents; in ethanol,slightly soluble
same,solubility,Solubility in solvents; in water,hardly soluble
